Experimental data reported in patent US11091485B2, “Imidazo[1′,2′:1,6]pyrido[2,3-d]pyrimidine compound as protein kinase inhibitor” (SHENGKE PHARMACEUTICALS (JIANGSU) LTD., priority 2017, dated 2021).

Columns and labels:
[1] = target: CDK6/cyclin D1 (Homo sapiens (Human), UniProt Q00534); test: Biochemical kinase inhibition test, CDK6/cyclin D1 (similar method); settings: for IC50: CDK6/cyclin D1, 10 μM ATP, read-out: CDK6/Cyelin D1 IC50; for selectivity for CDK6/cyclin D1 relative to CDK4/cyclin D1: enzyme inhibitory activity, CDK6/cyclin D1 vs CDK4/cyclin D1
Procedure: (§1) Potency determination of biochemical kinase inhibition test. Kinase activity test and IC50 determination. […] The kinase reaction was initiated by adding 1 μg (1.5 μM) of recombinant retinoblastoma protein, […] and 10μ Ci γ-32P-ATP. The reaction was incubated at 30° C. for 20 minutes, and was terminated by adding 2×Laemmli sample buffer, heated at 95° C. for three minutes, and the resulting solution was dissolved with 12% acrylamide SDS-PAGE and autoradiographed. A densitometer (Bio-Rad) was used to quantify the corresponding phosphorylated substrate protein bands. […] These reactions took place in the presence of 10 μM ATP.

[2] = target: FLT3 (Homo sapiens (Human), UniProt P36888); test: Enzyme inhibition FLT3; assay type: biochemical; settings: read-out: IC50 value of inhibition against FLT3
Procedure: (§2) In addition, the inhibitory activities of the compounds of the present disclosure against enzyme ABL1, FLT3 and PIM1 were also tested.

[3] = target: CDK4/Cyclin D1 (Homo sapiens (Human), UniProt P11802); test: Biochemical kinase inhibition test, CDK4/Cyclin D1 (32P-ATP, Rb substrate); settings: recombinant CDK4/Cyclin D1; 10 μM ATP; read-out: CDK4/Cydin D1 IC50
Procedure: as §1

[4] = target: PIM1 (Homo sapiens (Human), UniProt P11309); test: Enzyme inhibition PIM1; assay type: biochemical; settings: read-out: IC50 value of inhibition against PIM1
Procedure: as §2

PIM1, sequence (P11309 whole entry, species assumed): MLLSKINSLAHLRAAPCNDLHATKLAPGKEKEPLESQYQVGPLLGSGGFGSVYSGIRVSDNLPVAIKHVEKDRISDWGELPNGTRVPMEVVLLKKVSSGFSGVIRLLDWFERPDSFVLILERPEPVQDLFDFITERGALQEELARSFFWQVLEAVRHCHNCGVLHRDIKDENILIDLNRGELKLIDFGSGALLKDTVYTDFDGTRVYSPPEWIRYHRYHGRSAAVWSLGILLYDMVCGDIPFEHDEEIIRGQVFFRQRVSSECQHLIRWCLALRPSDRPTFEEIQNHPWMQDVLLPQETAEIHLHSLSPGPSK
CDK6/cyclin D1, sequence (Q00534 whole entry, species assumed): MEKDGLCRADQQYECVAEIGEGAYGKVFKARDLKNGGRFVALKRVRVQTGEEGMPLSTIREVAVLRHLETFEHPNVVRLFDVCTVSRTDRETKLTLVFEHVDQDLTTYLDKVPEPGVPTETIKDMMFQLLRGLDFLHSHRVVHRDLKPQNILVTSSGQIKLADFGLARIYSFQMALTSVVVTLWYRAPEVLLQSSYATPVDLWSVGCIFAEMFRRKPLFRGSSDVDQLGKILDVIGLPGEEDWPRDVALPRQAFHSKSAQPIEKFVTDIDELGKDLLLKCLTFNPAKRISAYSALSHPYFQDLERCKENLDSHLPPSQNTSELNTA
CDK6/cyclin D1, sequence (P24385 whole entry partner, species assumed): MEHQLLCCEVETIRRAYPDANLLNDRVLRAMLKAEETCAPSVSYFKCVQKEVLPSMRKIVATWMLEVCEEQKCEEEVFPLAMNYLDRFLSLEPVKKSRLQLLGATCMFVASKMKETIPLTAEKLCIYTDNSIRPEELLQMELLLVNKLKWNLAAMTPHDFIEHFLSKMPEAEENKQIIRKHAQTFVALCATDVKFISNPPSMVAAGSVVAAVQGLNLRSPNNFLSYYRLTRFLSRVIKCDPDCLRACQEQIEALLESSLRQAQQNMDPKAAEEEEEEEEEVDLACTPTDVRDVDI
CDK4/Cyclin D1, sequence (P11802 whole entry): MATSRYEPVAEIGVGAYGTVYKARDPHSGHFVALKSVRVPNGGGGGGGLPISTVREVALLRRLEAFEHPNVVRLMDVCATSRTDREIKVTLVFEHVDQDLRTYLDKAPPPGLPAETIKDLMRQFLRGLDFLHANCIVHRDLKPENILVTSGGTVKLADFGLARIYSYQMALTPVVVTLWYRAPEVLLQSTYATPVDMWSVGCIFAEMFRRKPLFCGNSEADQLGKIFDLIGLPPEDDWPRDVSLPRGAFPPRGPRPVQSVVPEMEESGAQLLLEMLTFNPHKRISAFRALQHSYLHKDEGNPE
CDK4/Cyclin D1, sequence (P24385 whole entry partner): as the sequence (P24385 whole entry partner, species assumed) above
FLT3, sequence (P36888 27-993, species assumed): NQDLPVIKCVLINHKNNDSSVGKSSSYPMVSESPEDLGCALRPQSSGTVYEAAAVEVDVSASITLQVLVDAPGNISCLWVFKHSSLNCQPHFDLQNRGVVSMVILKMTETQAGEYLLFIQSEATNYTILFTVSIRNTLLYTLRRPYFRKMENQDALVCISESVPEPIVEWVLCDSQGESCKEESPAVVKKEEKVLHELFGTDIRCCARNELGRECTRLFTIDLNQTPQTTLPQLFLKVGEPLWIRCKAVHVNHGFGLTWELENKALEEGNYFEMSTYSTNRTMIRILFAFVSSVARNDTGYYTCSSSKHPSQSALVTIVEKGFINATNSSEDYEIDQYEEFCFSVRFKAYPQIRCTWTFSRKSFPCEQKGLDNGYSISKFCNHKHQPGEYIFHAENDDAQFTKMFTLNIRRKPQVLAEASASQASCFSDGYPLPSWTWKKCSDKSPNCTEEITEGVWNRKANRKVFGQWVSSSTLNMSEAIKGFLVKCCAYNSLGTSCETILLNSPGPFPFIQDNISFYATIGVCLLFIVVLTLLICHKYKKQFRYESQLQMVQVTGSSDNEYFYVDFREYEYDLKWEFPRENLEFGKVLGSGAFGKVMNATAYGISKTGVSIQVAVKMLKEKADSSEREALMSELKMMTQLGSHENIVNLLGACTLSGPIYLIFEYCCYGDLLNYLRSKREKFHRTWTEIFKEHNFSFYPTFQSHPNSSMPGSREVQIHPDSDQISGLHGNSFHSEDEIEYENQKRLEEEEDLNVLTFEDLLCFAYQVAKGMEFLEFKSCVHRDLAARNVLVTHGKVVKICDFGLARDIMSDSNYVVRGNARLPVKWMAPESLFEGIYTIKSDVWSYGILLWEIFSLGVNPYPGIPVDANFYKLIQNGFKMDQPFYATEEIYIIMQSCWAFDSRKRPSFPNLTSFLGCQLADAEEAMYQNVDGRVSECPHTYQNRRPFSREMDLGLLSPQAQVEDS

Compound	IC50 [1] [nM]	selectivity for CDK6/cyclin D1 relative to CDK4/cyclin D1 [1]	IC50 [2] [nM]	IC50 [3] [nM]	IC50 [4] [nM]
CCN1CCN(c2cnc(Nc3ncc4ccc5ncc(C(C)C)n5c4n3)cc2C)CC1 [Compound I-6]	5 to 10	2-3 times		10 to 20	
CC(C)c1cnc2ccc3cnc(Nc4ccc(N5CCNC(C)(C)C5)cn4)nc3n12 [Compound I-11]	5 to 10			5 to 10	
CC(C)c1cnc2ccc3cnc(Nc4ccc(N5C[C@@H](C)N[C@@H](C)C5)cn4)nc3n12 [Compound I-12]	5 to 10			5 to 10	
CC(C)c1cnc2ccc3cnc(Nc4cc(F)c(N5CCNCC5)cn4)nc3n12.Cl [Compound I-13]	5 to 10	2-3 times		10 to 20	
CC(C)c1cnc2ccc3cnc(Nc4ccc(N5C[C@@H](C)O[C@@H](C)C5)cn4)nc3n12 [Compound I-21]	10 to 20	2-3 times		20 to 50	
CC(C)c1cnc2ccc3cnc(Nc4ccc(N5CCC6(CCNCC6)C5)cn4)nc3n12 [Compound I-22]	20 to 50			20 to 50	
CC(C)c1cnc2ccc3cnc(Nc4ccc(N5CCC6(CNC6)C5)cn4)nc3n12 [Compound I-23]	20 to 50			20 to 50	
CC(C)c1cnc2ccc3cnc(Nc4ccc(N5CC6(CNC6)C5)cn4)nc3n12 [Compound I-24]	20 to 50			20 to 50	
CC(C)c1cnc2ccc3cnc(Nc4ccc(N5CCC6(CC5)CNC6)cn4)nc3n12 [Compound I-25]	20 to 50			20 to 50	
CC(C)c1cnc2ccc3cnc(Nc4ccc(N5CC6(CCNCC6)C5)cn4)nc3n12 [Compound I-26]	20 to 50			20 to 50	
Cl.c1cc(Nc2ncc3ccc4ncc(C5CCCC5)n4c3n2)ncc1N1CCNCC1 [Compound I-31]	< 1	more than 5 times	< 5	1 to 5	< 50
CCN1CCN(c2cnc(Nc3ncc4ccc5ncc(C6CCCC6)n5c4n3)cc2C)CC1 [Compound I-32]	5 to 10			5 to 10	
Cc1cc(Nc2ncc3ccc4ncc(C5CCCC5)n4c3n2)ncc1N1CCNCC1.Cl [Compound I-33]	< 1	more than 10 times	< 5	5 to 10	< 50
Cc1nc(Nc2ncc3ccc4ncc(C5CCCC5)n4c3n2)ccc1N1CCNCC1.Cl [Compound I-34]	< 1	more than 10 times	< 5	5 to 10	< 50
C[C@@H]1CN(c2ccc(Nc3ncc4ccc5ncc(C6CCCC6)n5c4n3)nc2)C[C@H](C)N1 [Compound I-35]	5 to 10			5 to 10	
Fc1cc(Nc2ncc3ccc4ncc(C5CCCC5)n4c3n2)ncc1N1CCNCC1 [Compound I-36]	10 to 20			10 to 20	
Fc1nc(Nc2ncc3ccc4ncc(C5CCCC5)n4c3n2)ccc1N1CCNCC1 [Compound I-37]	5 to 10			5 to 10	
Cc1cc(Nc2ncc3ccc4ncc(C5CCCC5)n4c3n2)ncc1N1CCOCC1 [Compound I-38]	1 to 5	about 4 times	< 5	10 to 20	< 50
C[C@@H]1CN(c2ccc(Nc3ncc4ccc5ncc(C6CCCC6)n5c4n3)nc2)C[C@H](C)O1 [Compound I-39]	10 to 20	2-3 times		20 to 50	

More lines, now with the values ahead:

IC50 [1] [nM]	selectivity for CDK6/cyclin D1 relative to CDK4/cyclin D1 [1]	IC50 [2] [nM]	IC50 [3] [nM]	IC50 [4] [nM]	Compound
< 1	more than 5 times	< 5	1 to 5	< 50	CC(C)c1cnc2ccc3cnc(Nc4ccc(N5CCNCC5)cn4)nc3n12.Cl [Compound I-1, 9-Isopropyl-N-(5-(piperazin-1-yl)pyridin-2-yl)imidazo[1′,2′:1,6]pyrido[2,3-d]pyrimidin-2-amine hydrochloride]
< 1			< 1		CC(C)c1cnc2ccc3cnc(Nc4ccc(N5CCN(C)CC5)cn4)nc3n12 [Compound I-2, 9-Isopropyl-N-(5-(4-methylpiperazin-1-yl)pyridin-2-yl)imidazo[1′,2′:1,6]pyrido[2,3-d]pyrimidin-2-amine]
5 to 10			5 to 10		Cc1cc(Nc2ncc3ccc4ncc(C(C)C)n4c3n2)ncc1N1CCN(C)CC1 [Compound I-3]
5 to 10			5 to 10		Cc1nc(Nc2ncc3ccc4ncc(C(C)C)n4c3n2)ccc1N1CCN(C)CC1 [Compound I-4]
< 1			< 1		CCN1CCN(c2ccc(Nc3ncc4ccc5ncc(C(C)C)n5c4n3)nc2)CC1 [Compound I-5]
5 to 10	2-3 times		5 to 10		CCN1CCN(c2ccc(Nc3ncc4ccc5ncc(C(C)C)n5c4n3)nc2C)CC1 [Compound I-7]
< 1	more than 5 times	< 5	1 to 5	< 50	Cc1cc(Nc2ncc3ccc4ncc(C(C)C)n4c3n2)ncc1N1CCNCC1.Cl [Compound I-8]
< 1	more than 10 times	< 5	5 to 10	< 50	Cc1nc(Nc2ncc3ccc4ncc(C(C)C)n4c3n2)ccc1N1CCNCC1.Cl [Compound I-9]
5 to 10			5 to 10		CC(C)c1cnc2ccc3cnc(Nc4ccc(N5CCN[C@@H](C)C5)cn4)nc3n12 [Compound I-10]
10 to 20	2-3 times		20 to 50		CC(C)c1cnc2ccc3cnc(Nc4ccc(N5CCNCC5)c(F)n4)nc3n12.Cl [Compound I-14]
20 to 50			20 to 50		CC(C)c1cnc2ccc3cnc(Nc4ccc(N5CCCNCC5)cn4)nc3n12 [Compound I-15]
20 to 50			20 to 50		CC(C)c1cnc2ccc3cnc(Nc4ccc(N5CCCCC5)cn4)nc3n12 [Compound I-16]
< 1	more than 10 times	< 5	5 to 10	< 50	CC(C)c1cnc2ccc3cnc(Nc4ccc(N5CCOCC5)cn4)nc3n12 [Compound I-17]
1 to 5	about 4 times	< 5	10 to 20	< 50	Cc1cc(Nc2ncc3ccc4ncc(C(C)C)n4c3n2)ncc1N1CCOCC1 [Compound I-18]
5 to 10			5 to 10		Cc1nc(Nc2ncc3ccc4ncc(C(C)C)n4c3n2)ccc1N1CCOCC1 [Compound I-19]
5 to 10			5 to 10		CC1CN(c2ccc(Nc3ncc4ccc5ncc(C(C)C)n5c4n3)nc2)CCO1 (stereo not drawn) [Compound I-20]
50 to 100			50 to 100		CC(C)c1cnc2ccc3cnc(Nc4ccc(N5CCNCC5)cc4F)nc3n12 [Compound I-27]
50 to 100			50 to 100		COc1cc(OCCN(C)C)ccc1Nc1ncc2ccc3ncc(C(C)C)n3c2n1 [Compound I-28]
50 to 100			50 to 100		COc1cc(OC2CCN(C)CC2)ccc1Nc1ncc2ccc3ncc(C(C)C)n3c2n1 [Compound I-29]
50 to 100			50 to 100		COc1ccc2cc(Nc3ncc4ccc5ncc(C(C)C)n5c4n3)ccc2n1 [Compound I-30]
